According to ChEMBL document CHEMBL6103563, “Chiral recognition of CIAC001 isomers in regulating pyruvate kinase M2 and mitigating neuroinflammation” (Eur J Med Chem, 2025):
Calls of active or inactive are those of the source. No cut-off for these calls is given here.

Tests used:
Cannabinoid receptor 2 = Cannabinoid receptor 2 (Homo sapiens, UniProt P34972); assay: Binding affinity to CB2 receptor (unknown origin)
Cannabinoid receptor 1 = Cannabinoid receptor 1 (Homo sapiens, UniProt P21554); assay: Binding affinity to CB1 receptor (unknown origin)
Chain of Cannabinoid receptor 1 (P21554 whole entry): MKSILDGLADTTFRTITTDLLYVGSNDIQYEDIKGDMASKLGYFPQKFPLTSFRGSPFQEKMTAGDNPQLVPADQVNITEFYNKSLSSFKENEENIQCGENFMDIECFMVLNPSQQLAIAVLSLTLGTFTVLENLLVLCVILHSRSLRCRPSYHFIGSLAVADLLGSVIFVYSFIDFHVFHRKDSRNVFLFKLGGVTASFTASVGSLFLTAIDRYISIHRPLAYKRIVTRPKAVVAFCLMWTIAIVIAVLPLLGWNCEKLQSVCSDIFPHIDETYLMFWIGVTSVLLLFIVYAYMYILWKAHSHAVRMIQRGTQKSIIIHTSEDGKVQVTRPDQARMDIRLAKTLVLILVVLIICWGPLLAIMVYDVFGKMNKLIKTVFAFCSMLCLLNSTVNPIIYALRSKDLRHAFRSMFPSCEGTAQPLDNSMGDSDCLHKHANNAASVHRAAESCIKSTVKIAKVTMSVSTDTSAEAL

BV-2 [1] = assay: Anti-neuroinflammatory activity in mouse BV-2 cells assessed as inhibition of LPS-induced NO production incubated for 24 hrs in presence of LPS by fluorescence-based analysis; assay type: functional, cell-based; settings: for IC50: BV-2, 24 h
BV-2 [2] = assay: Anti-neuroinflammatory activity in mouse BV-2 cells assessed as inhibition of LPS-induced IL-1 beta mRNA expression at 10 uM by qRT-PCR analysis; assay type: functional, cell-based
BV-2 [3] = assay: Anti-neuroinflammatory activity in mouse BV-2 cells assessed as inhibition of LPS-induced microglial activation by measuring inhibition of morphological changes at 5 uM incubated for 24 hrs in presence of LPS by inverted microscopic analysis; assay type: functional, cell-based
BV-2 [4] = assay: Inhibition of LPS-inuced nuclear translocation of PKM2 in mouse BV-2 cells assessed as decrease in PKM2 content in nucleus at 5 uM incubated for 6 hrs in presence of LPS by western blot analysis; assay type: subcellular; settings: filed as modulator
Pyruvate kinase PKM [5] = target: T1, Pyruvate kinase PKM (Homo sapiens, UniProt P14618); assay: Binding affinity to PKM2 (unknown origin) assessed as decrease in thermal stabilization of protein by measuring change in melting temperature at 100 uM incubated for 2 hrs at room temperature followed by heating at varying temperatures for 5 mins and later cooled at 25 degC for 3 mins by CETSA analysis; settings: filed as modulator, time 128.0 min
Target sequence in this assay (P14618 2-531 limits assumed): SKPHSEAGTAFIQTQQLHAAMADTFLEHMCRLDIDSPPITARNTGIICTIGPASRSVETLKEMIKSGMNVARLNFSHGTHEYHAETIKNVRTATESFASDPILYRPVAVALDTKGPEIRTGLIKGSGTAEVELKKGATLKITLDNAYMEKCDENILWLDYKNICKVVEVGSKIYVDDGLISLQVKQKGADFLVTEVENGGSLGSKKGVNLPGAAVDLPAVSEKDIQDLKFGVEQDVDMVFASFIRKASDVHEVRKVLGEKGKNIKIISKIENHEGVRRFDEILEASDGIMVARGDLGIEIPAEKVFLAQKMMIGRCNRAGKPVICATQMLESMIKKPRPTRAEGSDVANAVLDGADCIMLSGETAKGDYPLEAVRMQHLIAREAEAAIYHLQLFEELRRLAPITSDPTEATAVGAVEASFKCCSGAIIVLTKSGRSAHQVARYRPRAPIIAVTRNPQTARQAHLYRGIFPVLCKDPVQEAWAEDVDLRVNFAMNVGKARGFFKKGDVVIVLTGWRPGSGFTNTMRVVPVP

Mus musculus [6] = assay: Anti-neuroinflammatory activity in BALB/c mouse assessed as decrease in morphine-induced IL-1 beta mRNA expression in medial prefrontal cortex at 0.2 mg/kg administration started on day 3 after 2 days of chamber habituation followed by treatment with morphine on days 4,6 and 8 and with vehicle on days 5,7 and 9 and measured on day 10 by qRT-PCR analysis; assay type: functional, organism-based; settings: time 8.0 day
Mus musculus [7] = assay: Anti-morphine addiction activity against BALB/c mouse assessed as decrease in preference for morphine-paired chamber at 0.2 mg/kg administration started on day 3 after 2 days of chamber habituation followed by treatment with morphine on days 4,6 and 8 and with vehicle on days 5,7 and 9 and measured on day 10 by conditional place preference test; assay type: functional, organism-based; settings: time 8.0 day
[8] = Ratio of Cmax in brain to plasma in BALB/c mouse at 10 mg/kg, po measured for 4 hrs by MS-HPLC analysis; assay type: ADME, organism-based; settings: brain and plasma
[9] = Ratio of AUC in brain to plasma in BALB/c mouse at 10 mg/kg, po measured for 4 hrs by MS-HPLC analysis; assay type: ADME, organism-based; settings: brain and plasma
[10] = Tmax in BALB/c mouse plasma at 10 mg/kg, po measured for 4 hrs by MS-HPLC analysis; assay type: ADME, organism-based
Homo sapiens = species: Homo sapiens; assay: Binding affinity to PKM2 F26A mutant (unknown origin) at 10 to 50 uM by fluorescence titration based spectrophotometric analysis; settings: dose 10-50 µM
[11] = Half life in BALB/c mouse plasma at 10 mg/kg, po measured for 4 hrs by MS-HPLC analysis; assay type: ADME, organism-based
[12] = Acute toxicity against BALB/c mouse assessed as changes in body weight at 20 mg/kg, ip measured for 14 days; assay type: organism-based; settings: in vivo, 336 h, time 14 day
[13] = Cmax in BALB/c mouse brain at 10 mg/kg, po measured for 4 hrs by MS-HPLC analysis; assay type: ADME, organism-based; settings: in vivo
[14] = AUC in BALB/c mouse brain at 10 mg/kg, po measured for 4 hrs by MS-HPLC analysis; assay type: ADME, organism-based; settings: in vivo
BV-2 [15] = assay: Anti-neuroinflammatory activity in mouse BV-2 cells assessed as inhibition of LPS-induced IL-1 beta mRNA expression at 1 uM by qRT-PCR analysis; assay type: functional, cell-based
[16] = Acute toxicity against BALB/c mouse assessed as mortality at 20 mg/kg, ip measured after 2 hrs; assay type: organism-based; settings: in vivo
[17] = AUC in BALB/c mouse plasma at 10 mg/kg, po measured for 4 hrs by MS-HPLC analysis; assay type: ADME, organism-based; settings: in vivo
[18] = Mean residence time in BALB/c mouse brain at 10 mg/kg, po measured for 4 hrs by MS-HPLC analysis; assay type: ADME, organism-based
[19] = Cmax in BALB/c mouse plasma at 10 mg/kg, po measured for 4 hrs by MS-HPLC analysis; assay type: ADME, organism-based; settings: in vivo
[20] = Half life in BALB/c mouse brain at 10 mg/kg, po measured for 4 hrs by MS-HPLC analysis; assay type: ADME, organism-based
Pyruvate kinase PKM [21] = target: T1, Pyruvate kinase PKM; assay: Binding affinity to PKM2 (unknown origin) assessed as dissociation constant by fluorescence titration based spectrophotometric analysis
Target sequence in this assay (P14618 whole entry): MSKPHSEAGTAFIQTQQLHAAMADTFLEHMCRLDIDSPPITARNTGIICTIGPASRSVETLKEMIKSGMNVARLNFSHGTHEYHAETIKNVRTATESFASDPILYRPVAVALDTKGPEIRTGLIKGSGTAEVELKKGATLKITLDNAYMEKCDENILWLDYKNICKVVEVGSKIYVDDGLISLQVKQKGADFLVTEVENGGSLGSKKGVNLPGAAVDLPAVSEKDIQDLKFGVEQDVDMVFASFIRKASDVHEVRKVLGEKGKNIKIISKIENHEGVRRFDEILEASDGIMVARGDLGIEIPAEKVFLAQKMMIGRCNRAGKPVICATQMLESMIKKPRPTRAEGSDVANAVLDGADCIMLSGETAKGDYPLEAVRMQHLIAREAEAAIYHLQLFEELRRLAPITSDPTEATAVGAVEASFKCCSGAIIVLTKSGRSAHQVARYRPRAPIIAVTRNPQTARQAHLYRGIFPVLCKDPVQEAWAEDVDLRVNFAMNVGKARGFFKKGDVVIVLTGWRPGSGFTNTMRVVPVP

[22] = Mean residence time in BALB/c mouse plasma at 10 mg/kg, po measured for 4 hrs by MS-HPLC analysis; assay type: ADME, organism-based
[23] = Tmax in BALB/c mouse brain at 10 mg/kg, po measured for 4 hrs by MS-HPLC analysis; assay type: ADME, organism-based

Chain of Cannabinoid receptor 2 (P34972 whole entry): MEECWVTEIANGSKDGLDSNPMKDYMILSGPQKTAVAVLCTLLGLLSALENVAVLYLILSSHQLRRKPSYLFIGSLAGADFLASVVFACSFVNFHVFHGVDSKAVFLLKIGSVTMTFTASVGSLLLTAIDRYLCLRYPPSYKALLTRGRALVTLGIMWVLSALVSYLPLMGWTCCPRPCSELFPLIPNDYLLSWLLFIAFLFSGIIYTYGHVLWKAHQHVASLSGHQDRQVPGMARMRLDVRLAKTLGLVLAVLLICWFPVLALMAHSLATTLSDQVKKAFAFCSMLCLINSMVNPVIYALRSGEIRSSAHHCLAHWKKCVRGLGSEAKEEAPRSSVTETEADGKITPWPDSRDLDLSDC

Structure (SMILES): CCCCCCC(C)(C)c1cc(O)c2c(c1)OC(C)(C)c1ccc(C)c(CO)c1-2
- Ki (Cannabinoid receptor 2): 96 nM
- Ki (Cannabinoid receptor 1): 0.066 nM

Structure (SMILES): C=C(C)[C@H]1CCC(C)=C[C@@H]1c1c(O)cc([C@@H](C)n2nccn2)cc1O
- IC50 (BV-2 [1]): > 30000 nM

Structure (SMILES): C=C(C)[C@@H]1CCC(C)=C[C@H]1c1c(O)cc([C@@H](C)n2nccn2)cc1O
- Activity (BV-2 [2]): Active
- Activity (BV-2 [3]): Active; Lessened Effect Observed
- inhibition (BV-2 [4]): Active; Weak Inhibitory Effect Observed
- ΔTm (Pyruvate kinase PKM [5]): 1.6 °C
- IC50 (BV-2 [1]): 13200 nM
- Activity (Mus musculus [6]): Active; Minimal Effect Observed
- Activity (Mus musculus [7]): inactive

Structure (SMILES): C=C(C)[C@@H]1CCC(C)=C[C@H]1c1c(O)cc([C@H](C)n2nccn2)cc1O
- Kp at 4 h [8]: 3
- Kp at 4 h [9]: > 2
- Activity (BV-2 [2]): Active
- Tmax [10]: 30 min
- Activity (BV-2 [3]): Active
- Activity (Homo sapiens): inactive
- inhibition (BV-2 [4]): Active
- half-life [11]: 42 min
- Activity [12]: Non-toxic
- ΔTm (Pyruvate kinase PKM [5]): 4.1 °C
- Cmax [13]: 130 ng/mg
- AUC [14]: 137.7 ng·h/g
- Activity (BV-2 [15]): Active
- Activity [16]: Non-toxic
- AUC [17]: 75.5 ng·h/g
- Activity (BV-2 [1]): Dose-dependent-effect
- IC50 (BV-2 [1]): 3300 nM
- MRT [18]: 102 min
- Cmax [19]: 46.6 ng/mg
- Activity (Mus musculus [6]): Active
- half-life [20]: 48 min
- Activity (Mus musculus [7]): Active
- Kd (Pyruvate kinase PKM [21]): 2200 nM
- MRT [22]: 72 min
- Tmax [23]: 18 min

Structure (SMILES): C=C(C)[C@H]1CCC(C)=C[C@@H]1c1c(O)cc([C@H](C)n2nccn2)cc1O
- IC50 (BV-2 [1]): > 30000 nM
